Test results as given in patent publication US20210227854A1, “USE OF D-RIBOSE TO ENHANCE ADAPTATION TO PHYSICAL STRESS” (Bioenergy Life Science, Inc., priority 2014, published 2021).

Legend:
Format in all cases: in vivo, human
[1] = Tolerability of supplementation in the exercise study; details: 10 g/day; 26 subjects
Description: A high-intensity exercise protocol was designed as a double-blind, crossover study to assess the influence of D-Ribose adaptation to physical stress. Specifically, D-Ribose and a control (Dextrose) were administered on separate subjects at a dosage of ten grams per day (10 g/day). A variety of physiological parameters were measured in the subjects administered D-Ribose (DR) supplementation (i.e., the DR subjects) versus the subjects administered Dextrose (DEX) supplementation (i.e., the DEX subjects).
The subjects consisted of twenty-six (26) healthy individual (10 females, 16 males). Each subject was randomly categorized as a DR subject or a DEX subject for the administration of supplementation. Furthermore, each subject was required to maintain his or her normal diet during the study, as well as performing his or her normal daily activities without performing any additional separate exercise sessions not part of the study protocol. […]

[2] = Rating of perceived exertion (RPE) during exercise; details: for RPE (Borg 6-20 scale): 10 g/day, mean ± SD
Description: A high-intensity exercise protocol was designed as a double-blind, crossover study to assess the influence of D-Ribose adaptation to physical stress. Specifically, D-Ribose and a control (Dextrose) were administered on separate subjects at a dosage of ten grams per day (10 g/day). A variety of physiological parameters were measured in the subjects administered D-Ribose (DR) supplementation (i.e., the DR subjects) versus the subjects administered Dextrose (DEX) supplementation (i.e., the DEX subjects). To test D-ribose for adaptation, the twenty-six (26) adult subjects were further divided into two subgroups based on their fitness level (i.e., peak oxygen uptake (VO2 max) results. The first subgroup comprised subjects with higher VO2 max results (i.e., the “Fit Subgroup”) and the second subgroup comprised subjects with lower VO2 max results (i.e., the “Unfit Subgroup”). The Unfit Subgroup consisted of six (6) females and seven (7) males. The average age of the Unfit Subgroup was 27.7±3.4 years and the average peak VO2 of the Unfit Subgroup was 39.9±4.1 mL/kg/min. The Fit Subgroup consisted of four (4) females and nine (9) males. The average age of the Fit Subgroup was 27.6±3.5 year and the average peak VO2 of the Fit Subgroup was 52.2±4.3 mL/kg/min. The protocol of the double-blind crossover study involved an initial baseline assessment, followed by two separate day assessments after consuming either a DR or DEX supplement. Each exercise session entailed measurements of creatine kinase (CK), blood urea nitrogen (BUN), glucose, heart rate (HR), rate of perceived exertion (RPE), and power output (PO) measurements. […] The Likert scale (0-10 points) was used to subjectively assess quadriceps muscle soreness, overall fatigue, appetite, perceived performance, and sleep quality. These scales were completed prior to and following each exercise session.

[3] = Serum creatine kinase (CK) around three days of high-intensity exercise; details: for CK (u): Day 1 to Day 3, 10 g/day, mean ± SD; for Creatine kinase levels, average increase: text b38, p=0.03
Description: A high-intensity exercise protocol was designed as a double-blind, crossover study to assess the influence of D-Ribose adaptation to physical stress. Specifically, D-Ribose and a control (Dextrose) were administered on separate subjects at a dosage of ten grams per day (10 g/day). A variety of physiological parameters were measured in the subjects administered D-Ribose (DR) supplementation (i.e., the DR subjects) versus the subjects administered Dextrose (DEX) supplementation (i.e., the DEX subjects). To test D-ribose for adaptation, the twenty-six (26) adult subjects were further divided into two subgroups based on their fitness level (i.e., peak oxygen uptake (VO2 max) results. The first subgroup comprised subjects with higher VO2 max results (i.e., the “Fit Subgroup”) and the second subgroup comprised subjects with lower VO2 max results (i.e., the “Unfit Subgroup”). The Unfit Subgroup consisted of six (6) females and seven (7) males. The average age of the Unfit Subgroup was 27.7±3.4 years and the average peak VO2 of the Unfit Subgroup was 39.9±4.1 mL/kg/min. The Fit Subgroup consisted of four (4) females and nine (9) males. The average age of the Fit Subgroup was 27.6±3.5 year and the average peak VO2 of the Fit Subgroup was 52.2±4.3 mL/kg/min. The protocol of the double-blind crossover study involved an initial baseline assessment, followed by two separate day assessments after consuming either a DR or DEX supplement. Each exercise session entailed measurements of creatine kinase (CK), blood urea nitrogen (BUN), glucose, heart rate (HR), rate of perceived exertion (RPE), and power output (PO) measurements. Physiologic parameters were measured and hydration was provided to the subjects during the exercise session. The same protocol for testing and hydration protocol was followed for both DR subjects and DEX subjects. Blood samples were drawn from each subject via a venipuncture technique at the following time periods: • Ten (10) minutes before commencement of exercise; • Twenty (20) minutes after the commencement of and during exercise; • Forty (40) minutes after the commencement of and during exercise; • Sixty (60) minutes after the commencement of and during exercise; and • Twenty-four (24) hours after the conclusion of exercise (twenty-five (25) hours after the commencement of exercise). Blood glucose was measured at all of the above time points except at twenty-four (24) hours post-exercise. Creatine kinase and BUN levels were measured at the pre-exercise (−10 min.) point during the three (3) days of exercise and twenty-four (24) hours post-exercise following the third (last) exercise session. Heart rate was recorded using a Polar HR monitor. Blood glucose levels were measured using a Bayer glucose monitor. Blood lactate levels were measured by an AccuSport Lactate Analyzer. Creatine kinase and BUN were measured utilizing an Abaxis Piccolo analyzer. Power data from the time trial performance test was assessed with the Sports Medicine Industries (SMI) software package.

SMILES	Tolerability of supplement [1]	RPE ([2]; Fit Subgroup)	RPE (Borg 6-20 scale) ([2]; Fit Subgroup)	RPE (Borg 6-20 scale) ([2]; Unfit Subgroup)	RPE ([2]; Unfit Subgroup, p=0.003)	Average rate of perceived exertion, DEX subjects versus DR subjects (FIG. 1) ([2]; all measured points of the exercise sessions)	CK (u) ([3]; Fit Subgroup)	CK (u) ([3]; Unfit Subgroup)	Creatine kinase levels, average increase ([3]; Unfit Subgroup)	Change in CK levels, DR versus DEX ([3]; Fit Subgroup)
O=C[C@H](O)[C@@H](O)[C@H](O)[C@H](O)CO [DEX, Dextrose, reference compound]	without any subjective complaints or issues	14±2	13.9 ± 1.6	13.5 ± 1.5	14±2	greater	12.1 ± 270 u	124.5 ± 126.5 u	121.4±110.2 U	–
O=C[C@H](O)[C@H](O)[C@H](O)CO [DR, D-Ribose]	without any subjective complaints or issues	14±2	13.6 ± 1.8	13.1 ± 1.6	13±2	–	40.0 ± 348.1 u	10.3 ± 79.3 u	37.1±85.2 U	No differences
